This note sets out measurements from ChEMBL document CHEMBL1201862, “PubChem BioAssay data set” (2004).

Broadly, the CC50 is the concentration at which the toxic effect on the cells reaches its halfway point. The AC50 is the concentration at which the activity in the assay is half-maximal. A word on the IC50: it is the concentration that inhibits the measured activity by half. For orientation: EC50 means the concentration that produces a half-maximal response.

Structures are written as SMILES. Calls of active or inactive are those of the source.

A short description of assay [1]: THP-1 cell cytotoxicity, dose response, cytotoxicity control for Vif-APOBEC3G degradation inhibitor project, THP-1 cells (AID 1117359). The format is functional. To be noted: Human immunodeficiency virus 1, THP-1.
The target of a further assay is Cytochrome P450 2C9 (Homo sapiens, UniProt P11712).
Cytochrome P450 2C9, sequence (P11712 whole entry): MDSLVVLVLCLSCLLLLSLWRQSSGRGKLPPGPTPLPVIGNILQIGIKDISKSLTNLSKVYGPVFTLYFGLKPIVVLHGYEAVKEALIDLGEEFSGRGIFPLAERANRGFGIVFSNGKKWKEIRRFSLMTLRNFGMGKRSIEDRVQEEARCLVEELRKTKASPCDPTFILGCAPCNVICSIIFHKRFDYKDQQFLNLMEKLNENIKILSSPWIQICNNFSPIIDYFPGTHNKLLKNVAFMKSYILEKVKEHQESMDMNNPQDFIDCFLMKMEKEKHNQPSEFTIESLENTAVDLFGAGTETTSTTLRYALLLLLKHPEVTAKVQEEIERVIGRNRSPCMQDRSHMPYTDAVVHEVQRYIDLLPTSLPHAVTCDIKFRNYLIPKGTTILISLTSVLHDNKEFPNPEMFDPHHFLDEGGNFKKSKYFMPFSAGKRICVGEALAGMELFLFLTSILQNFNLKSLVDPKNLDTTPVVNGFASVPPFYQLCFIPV
The nature of assay [2]: P. falciparum late gametocyte killing, dose response, luminescence (AID 1117278).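 Further: gametocytes exposed to compound for 24 hours.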 The format is functional, cell-based.
Assay [3] in a line: Jurkat T cell cytotoxicity, dose response, cytotoxicity control for P. falciparum gametocyte viability project, luminescence (AID 1117277).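 Further: potency reflects loss of cellular ATP meaning fewer viable cells.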 The format is functional, cell-based.
For assay [4], the target named is Glucose-6-phosphate 1-dehydrogenase (Homo sapiens, UniProt P11413). Nature of the assay: human G6PD enzyme inhibitors, dose response, selectivity assay for P. falciparum G6PD inhibitor project, biochemical, fluorescence (AID 504792). The format is functional.
Glucose-6-phosphate 1-dehydrogenase, sequence (P11413 whole entry): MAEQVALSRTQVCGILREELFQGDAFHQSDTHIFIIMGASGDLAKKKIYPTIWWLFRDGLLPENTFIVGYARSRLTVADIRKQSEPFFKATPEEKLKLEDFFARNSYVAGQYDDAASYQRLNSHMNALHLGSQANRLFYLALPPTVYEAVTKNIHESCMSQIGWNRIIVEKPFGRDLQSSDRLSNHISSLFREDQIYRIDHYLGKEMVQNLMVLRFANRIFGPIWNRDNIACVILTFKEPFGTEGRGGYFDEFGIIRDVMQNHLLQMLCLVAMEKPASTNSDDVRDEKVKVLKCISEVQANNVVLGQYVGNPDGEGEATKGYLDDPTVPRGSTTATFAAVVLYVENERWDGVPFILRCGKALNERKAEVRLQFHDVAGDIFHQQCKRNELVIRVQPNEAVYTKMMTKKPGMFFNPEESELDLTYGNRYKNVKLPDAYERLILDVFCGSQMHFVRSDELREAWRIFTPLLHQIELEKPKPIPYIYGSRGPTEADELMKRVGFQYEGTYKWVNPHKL
Assay [5] can be described thus: inhibitors of Vif binding to APOBEC3G peptide, primary screen, biochemical, TR-FRET, GST-Vif 1-94, biotin-A3G peptide, dose response retest (AID 1117319).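 Further: TR-FRET signal of purified GST-Vif binding a biotinylated A3G peptide; inhibitors lower the FRET signal by blocking Vif and A3G binding.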 The format is functional.
Assay [6] relates to Streptococcus sp. 'group A'. Nature of the assay: growth inhibition of control SK(-) GAS strain, dose response, counter-screen for streptokinase expression inhibitor project, luminescence, kanamycin, BacTiterGlo, confirmation (AID 1900). It is filed as functional, organism-based. Background: Counterscreens check selectivity or assay interference.
A further assay concerns the target T1, Streptokinase A (Streptococcus pyogenes serotype M1, UniProt P10520).
T1 sequence (P10520 whole entry): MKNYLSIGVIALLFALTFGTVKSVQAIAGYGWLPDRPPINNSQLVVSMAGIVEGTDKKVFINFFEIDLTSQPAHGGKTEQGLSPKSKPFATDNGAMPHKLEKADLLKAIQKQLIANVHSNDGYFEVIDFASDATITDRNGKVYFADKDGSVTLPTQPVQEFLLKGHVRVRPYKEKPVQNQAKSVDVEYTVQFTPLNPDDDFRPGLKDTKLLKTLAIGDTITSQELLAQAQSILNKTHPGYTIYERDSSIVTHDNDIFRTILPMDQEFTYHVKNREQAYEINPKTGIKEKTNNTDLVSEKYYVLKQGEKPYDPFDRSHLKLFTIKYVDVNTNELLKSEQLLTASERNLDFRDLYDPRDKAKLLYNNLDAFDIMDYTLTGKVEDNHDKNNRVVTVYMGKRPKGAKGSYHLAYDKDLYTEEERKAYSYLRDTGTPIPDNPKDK
Briefly: S. pyogenes streptokinase expression inhibitors, potency, dose response, plasminogen activation absorbance, OD405 (AID 1914).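 Further: secreted streptokinase activity via plasminogen activation per viability signal from cell pellet.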 The format is functional, Streptococcus pyogenes M1 GAS.

For a further assay, the system named is Streptococcus. Nature of the assay: Group A Streptococcus viability loss, dose response, counter-screen for streptokinase expression inhibitor project, luminescence, BacTiterGlo (AID 1915).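 Further: potency for reduction of bacterial viability or growth.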 The format is functional, organism-based.
Assay [7] addresses T2, COUP transcription factor 2 (Homo sapiens, UniProt P24468).
T2 sequence (P24468 whole entry): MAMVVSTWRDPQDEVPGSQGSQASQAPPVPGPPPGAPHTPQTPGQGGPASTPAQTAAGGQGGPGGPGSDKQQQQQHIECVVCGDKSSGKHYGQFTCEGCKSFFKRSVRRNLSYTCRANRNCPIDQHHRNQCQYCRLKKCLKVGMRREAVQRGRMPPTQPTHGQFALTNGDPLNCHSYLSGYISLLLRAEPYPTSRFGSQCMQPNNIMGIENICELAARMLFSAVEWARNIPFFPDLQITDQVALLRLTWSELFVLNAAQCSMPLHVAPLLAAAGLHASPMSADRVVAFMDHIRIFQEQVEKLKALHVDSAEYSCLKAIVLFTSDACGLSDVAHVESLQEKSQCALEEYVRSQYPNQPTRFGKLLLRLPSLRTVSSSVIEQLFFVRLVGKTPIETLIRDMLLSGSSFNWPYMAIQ
Briefly: Luminescence-based cell-based high throughput dose response assay to identify inhibitors of COUP-TFII (NR2F2). The format is functional.

Turning to `CCOC(=O)c1nc(O)c2c(C)c(C)sc2n1`, the CC50 in [1] is > 40 µM (active). For the same compound, the AC50 at Cytochrome P450 2C9 is 20 µM (inconclusive).

On to `CCC(C)Sc1nc2c(c(=O)[nH]c(=O)n2C)n1CC(O)COc1ccccc1C` (centres undefined), for which the IC50 in assay [2] is > 109 µM (inactive); in [3], > 83.3 µM (inactive).

Consider `CCN(CC)CCCN1C(=O)CSC1c1ccc2c(c1)OCO2` (centres undefined), for which the IC50 was > 109 µM (inactive) in assay [2] and > 83.3 µM (inactive) in assay [3].

For the compound `CCC(c1ccc(O)c(O)c1)C(CC)c1ccc(O)c(O)c1` (centres undefined), in assay [4], the IC50 was > 80 µM (inactive). In addition, in assay [1], the half-maximal cytotoxic concentration (CC50) is 11.7 µM (active).

On to `CCC(Sc1nc2cc(OC)c(OC)cc2c(=O)n1Cc1ccco1)C(=O)NCCOC` (centres undefined), for which the IC50 in [5] was > 100 µM (active).

For `COC(=O)c1c[nH]nc1N=C(S)Nc1ccc(C)cc1Cl`, the values for the EC50 (in assay [6]; at Streptokinase A; with Streptococcus) were 51.6 µM (active), 56.8 µM (active) and > 150 µM (not active), respectively. The IC50 in [5] is > 100 µM (active).

Consider `COc1ccc(CC(=O)Nc2ccc(C(N)=O)cc2)cc1`, for which the IC50 in [2] is > 109 µM (inactive); in assay [3], > 83.3 µM (inactive).

Regarding `O=C(Cn1cnc2c(nnn2Cc2ccc(Cl)cc2)c1=O)NCc1ccco1`, the half-maximal inhibitory concentration (IC50) in assay [5] was > 100 µM (active).

For the compound `CC(=O)c1sc(NC(=O)C2CCN(C(=O)c3ccccc3C)CC2)nc1-c1ccccc1`, the CC50 in assay [1] was > 40 µM (active).

`O=C(CSc1cc(Cl)ccc1Cl)N/N=C/c1ccc[nH]1`: the IC50 in [7] is 15 µM (inactive).

`Cc1ccc2c(c1)N=C(c1ccc(Cl)cc1)CO2`: in assay [5], the 50% inhibitory concentration (IC50) is > 100 µM (active).
